Experimental data from article PMC2849849 (Neuropharmacology, 2010).
Values joined by “and” are separate entries in the source; they are usually repeats but may differ in a detail not shown here. Equal values may be shown once. “Also recorded” adds a separate entry of the source. Where a name gives a salt, the structure may show the parent alone. Read-outs that look alike come from different tables or passages of the source.

How the values were obtained:
α6β2*-nAChR [1] = target: T1, α6β2*-nAChR (Mus musculus, UniProt Q9ERK7+Q9R0W9); assay: α-CtxMII-sensitive [3H]-dopamine release from striatal synaptosomes; assay type: biochemical
T1 sequence (Q9R0W9 31-494): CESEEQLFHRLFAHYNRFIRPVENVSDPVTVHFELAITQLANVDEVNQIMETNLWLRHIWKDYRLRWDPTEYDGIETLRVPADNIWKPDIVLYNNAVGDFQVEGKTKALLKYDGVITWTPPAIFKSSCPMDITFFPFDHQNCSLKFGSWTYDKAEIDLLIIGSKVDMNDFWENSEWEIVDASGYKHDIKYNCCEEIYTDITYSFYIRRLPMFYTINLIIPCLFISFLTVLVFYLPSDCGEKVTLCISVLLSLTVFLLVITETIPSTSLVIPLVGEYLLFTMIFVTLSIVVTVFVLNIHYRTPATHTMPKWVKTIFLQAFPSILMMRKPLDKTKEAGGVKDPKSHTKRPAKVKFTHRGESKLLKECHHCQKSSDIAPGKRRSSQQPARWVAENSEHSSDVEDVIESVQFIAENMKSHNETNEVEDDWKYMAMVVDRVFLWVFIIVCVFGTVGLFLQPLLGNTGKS
T1 sequence (Q9ERK7 26-501): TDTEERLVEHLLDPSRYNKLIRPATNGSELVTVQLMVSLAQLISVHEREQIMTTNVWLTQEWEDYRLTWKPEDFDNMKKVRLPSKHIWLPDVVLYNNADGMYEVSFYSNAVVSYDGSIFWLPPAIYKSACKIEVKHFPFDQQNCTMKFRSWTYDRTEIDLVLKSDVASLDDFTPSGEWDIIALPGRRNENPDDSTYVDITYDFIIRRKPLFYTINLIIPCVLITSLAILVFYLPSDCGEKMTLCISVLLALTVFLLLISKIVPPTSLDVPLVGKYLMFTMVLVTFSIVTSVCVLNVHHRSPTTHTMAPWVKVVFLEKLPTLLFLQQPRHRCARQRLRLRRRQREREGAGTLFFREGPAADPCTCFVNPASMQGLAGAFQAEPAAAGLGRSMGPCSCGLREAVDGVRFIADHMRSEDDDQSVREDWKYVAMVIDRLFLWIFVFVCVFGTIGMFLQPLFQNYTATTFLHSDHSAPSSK
T1 sequence (Q8BMN3 31-464 partner): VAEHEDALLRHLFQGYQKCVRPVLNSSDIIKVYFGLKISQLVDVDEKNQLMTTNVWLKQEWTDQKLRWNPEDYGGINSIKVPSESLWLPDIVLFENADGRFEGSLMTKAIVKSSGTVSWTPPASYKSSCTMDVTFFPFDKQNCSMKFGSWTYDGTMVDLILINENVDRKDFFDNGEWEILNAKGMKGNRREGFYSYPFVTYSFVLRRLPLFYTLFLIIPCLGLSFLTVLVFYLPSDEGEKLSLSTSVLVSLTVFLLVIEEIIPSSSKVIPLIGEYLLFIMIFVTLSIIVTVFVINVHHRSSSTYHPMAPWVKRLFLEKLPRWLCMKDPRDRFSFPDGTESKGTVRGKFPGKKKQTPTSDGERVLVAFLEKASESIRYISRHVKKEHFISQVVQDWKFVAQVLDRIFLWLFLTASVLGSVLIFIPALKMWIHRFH

α4L9'A knock-in mice [2] = assay: Hypothermia in α4L9'A knock-in mice; assay type: in vivo, mouse; settings: for Physiological effect α4L9'Aβ2*: ip
α3β4*-nAChR = α3β4*-nAChR (Mus musculus, UniProt Q8R493+Q8R4G9); assay: [3H]-ACh release from IPN synaptosomes; assay type: biochemical; settings: for Functional character at α3β4*: [3H]-ACh release from IPN synaptosomes
Chain of α3β4*-nAChR (Q8R4G9 26-499): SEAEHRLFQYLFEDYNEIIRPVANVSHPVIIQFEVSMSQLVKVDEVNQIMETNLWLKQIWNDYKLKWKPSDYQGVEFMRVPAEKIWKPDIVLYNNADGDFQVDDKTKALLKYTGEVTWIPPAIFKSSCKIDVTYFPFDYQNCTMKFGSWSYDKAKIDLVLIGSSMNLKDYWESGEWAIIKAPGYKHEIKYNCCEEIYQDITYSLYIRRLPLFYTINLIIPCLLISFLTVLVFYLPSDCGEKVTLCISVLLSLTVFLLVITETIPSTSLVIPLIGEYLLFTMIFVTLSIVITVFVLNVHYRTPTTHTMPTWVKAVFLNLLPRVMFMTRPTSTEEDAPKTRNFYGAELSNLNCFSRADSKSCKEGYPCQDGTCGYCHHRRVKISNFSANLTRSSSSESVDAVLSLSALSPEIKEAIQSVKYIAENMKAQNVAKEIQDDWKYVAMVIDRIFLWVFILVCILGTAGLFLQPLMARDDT
Chain of α3β4*-nAChR (Q8R493 21-495): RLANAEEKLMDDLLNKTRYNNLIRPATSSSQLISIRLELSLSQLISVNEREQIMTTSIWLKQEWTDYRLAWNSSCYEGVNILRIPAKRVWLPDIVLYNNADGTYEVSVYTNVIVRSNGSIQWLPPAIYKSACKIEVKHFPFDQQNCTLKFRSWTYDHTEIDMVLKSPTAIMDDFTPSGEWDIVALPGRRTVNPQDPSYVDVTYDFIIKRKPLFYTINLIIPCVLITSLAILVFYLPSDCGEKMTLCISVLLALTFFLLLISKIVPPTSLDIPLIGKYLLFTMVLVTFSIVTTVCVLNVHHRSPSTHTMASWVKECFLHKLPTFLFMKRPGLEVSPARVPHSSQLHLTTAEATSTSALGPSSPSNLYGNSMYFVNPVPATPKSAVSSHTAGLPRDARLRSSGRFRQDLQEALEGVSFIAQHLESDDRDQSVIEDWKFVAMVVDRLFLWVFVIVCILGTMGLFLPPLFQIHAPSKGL

hα7-nAChR = hα7-nAChR (Homo sapiens, UniProt P36544); assay: cell-based; assay type: cell-based; settings: for EC50: read-out: EC50 α7; for Emax: GH4-C1, read-out: Efficacy α7
Chain of hα7-nAChR (P36544 23-502): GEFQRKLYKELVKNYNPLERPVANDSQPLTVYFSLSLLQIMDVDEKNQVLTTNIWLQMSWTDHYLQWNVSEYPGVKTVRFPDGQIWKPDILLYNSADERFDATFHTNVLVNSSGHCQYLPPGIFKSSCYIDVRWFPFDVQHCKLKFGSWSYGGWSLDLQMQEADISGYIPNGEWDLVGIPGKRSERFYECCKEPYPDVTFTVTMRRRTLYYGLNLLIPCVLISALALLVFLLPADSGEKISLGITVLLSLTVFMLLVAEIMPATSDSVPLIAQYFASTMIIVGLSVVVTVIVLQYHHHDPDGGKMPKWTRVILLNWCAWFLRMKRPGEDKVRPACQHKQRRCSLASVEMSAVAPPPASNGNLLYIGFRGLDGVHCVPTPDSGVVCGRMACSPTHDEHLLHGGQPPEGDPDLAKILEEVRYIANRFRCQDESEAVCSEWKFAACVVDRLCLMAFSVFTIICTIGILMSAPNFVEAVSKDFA

α4β2*-nAChR [3] = target: T2, α4β2*-nAChR (Mus musculus, UniProt O70174+Q9ERK7); assay: α-CtxMII-resistant [3H]-dopamine release from striatal synaptosomes; assay type: biochemical
T2 sequence (O70174 31-629): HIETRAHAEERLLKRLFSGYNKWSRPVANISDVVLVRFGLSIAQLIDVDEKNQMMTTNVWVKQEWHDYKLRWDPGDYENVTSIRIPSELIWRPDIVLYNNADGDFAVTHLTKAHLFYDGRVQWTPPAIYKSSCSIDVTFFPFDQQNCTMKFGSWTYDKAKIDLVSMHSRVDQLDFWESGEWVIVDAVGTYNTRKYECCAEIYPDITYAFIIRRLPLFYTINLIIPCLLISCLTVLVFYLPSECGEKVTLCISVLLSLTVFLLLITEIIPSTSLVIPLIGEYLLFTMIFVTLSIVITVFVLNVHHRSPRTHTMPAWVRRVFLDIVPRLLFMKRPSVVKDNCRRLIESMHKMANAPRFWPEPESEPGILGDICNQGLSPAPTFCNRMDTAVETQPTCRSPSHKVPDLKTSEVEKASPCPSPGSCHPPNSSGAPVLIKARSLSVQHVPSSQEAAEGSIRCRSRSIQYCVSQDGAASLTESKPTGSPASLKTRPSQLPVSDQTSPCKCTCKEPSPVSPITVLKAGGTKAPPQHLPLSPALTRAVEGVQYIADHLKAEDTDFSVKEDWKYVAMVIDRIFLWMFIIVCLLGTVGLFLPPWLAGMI
T2 sequence (Q9ERK7 26-501): as the sequence (Q9ERK7 26-501) above

α6L9'S transgenic mice [4] = settings: ref Drenan et al, 2008, cited from earlier work; for Physiological effect α6L9'Sβ2*: locomotor, ip, dose in parentheses mg/kg
α6L9'S transgenic mice [5] = assay: Locomotor activity in α6L9'S transgenic mice; assay type: in vivo, mouse; settings: for Physiological effect α6L9'Sβ2*: locomotor, ip, dose in parentheses mg/kg
α7-nAChR = α7-nAChR (Mus musculus, UniProt P49582); assay: biochemical; assay type: binding
Chain of α7-nAChR (P49582 23-502): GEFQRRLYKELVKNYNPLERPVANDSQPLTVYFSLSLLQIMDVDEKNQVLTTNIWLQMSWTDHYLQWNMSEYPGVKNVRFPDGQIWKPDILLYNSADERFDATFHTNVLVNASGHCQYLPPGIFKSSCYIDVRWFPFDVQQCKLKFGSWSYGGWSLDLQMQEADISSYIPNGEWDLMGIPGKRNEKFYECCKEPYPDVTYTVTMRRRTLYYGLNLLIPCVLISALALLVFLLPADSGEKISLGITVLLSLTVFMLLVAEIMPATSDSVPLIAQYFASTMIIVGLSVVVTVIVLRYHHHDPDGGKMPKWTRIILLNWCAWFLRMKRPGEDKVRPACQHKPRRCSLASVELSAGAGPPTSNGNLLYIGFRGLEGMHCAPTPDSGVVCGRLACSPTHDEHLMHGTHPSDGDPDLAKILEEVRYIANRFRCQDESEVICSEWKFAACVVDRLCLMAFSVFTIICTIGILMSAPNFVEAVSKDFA

α4L9'A knock-in mice [6] = settings: ref Tapper et al, 2007, cited from earlier work; for Physiological effect α4L9'Aβ2*: ip, dose in parentheses mg/kg
α6L9'S mice = settings: 0.1 mg/kg; unpublished data
α4β2*-nAChR [7] = target: T2, α4β2*-nAChR; settings: ref Salminen et al, 2004; cited from earlier work
α6β2*-nAChR [8] = target: T1, α6β2*-nAChR; settings: ref Salminen et al, 2004; cited from earlier work
[9] = read-out: Ki α4β2* (1st number, [3H]DA release assay, marked #)
[10] = EC50 α6β2*, activation, α-CtxMII-sensitive DA release
[11] = dose in parentheses mg/kg, block = block of low dose nicotine
[12] = EC50 α4β2* (1st number, [3H]DA release assay), activation, curve fit
[13] = EC50 α3β4*, activation, [3H]ACh release
[14] = Ki α4β2* (1st number, [3H]DA release assay, marked #)

Compound: 2-((5-chloropyridin-3-yloxy)methyl)quinuclidine [Compound 11]
- Efficacy α6β2* (α6β2*-nAChR [1]): -100 ± 18%
- Reduction of antagonist potency at α6β2* relative to Compound 5 (α6β2*-nAChR [1]): 2 fold
- Ki (α6β2*-nAChR [1]; read-out: Ki α6β2* (marked #)): 0.91 ± 0.656 µM
- Physiological effect α4L9'Aβ2* (α4L9'A knock-in mice [2]; mouse, in vivo): did not have intrinsic activity, nor did they block the effect of nicotine; also recorded: inconclusive
- Efficacy α3β4* (α3β4*-nAChR): 8% and 8 ± 2%
- Functional character at α3β4* (α3β4*-nAChR): partial agonists
- EC50 (α3β4*-nAChR; read-out: EC50 α3β4*, activation, [3H]ACh release): 7 ± 1 µM
- Efficacy α7 (hα7-nAChR): 31% and 31 ± 12%
- EC50 (hα7-nAChR; peak current, GH4C1 cells): 4.26 ± 0.73 µM
- Efficacy α4β2* (first number, [3H]DA release) (α4β2*-nAChR [3]): -100 ± 9%
- Reduction of antagonist potency at α4β2* relative to Compound 5 (α4β2*-nAChR [3]): 16 fold
- Ki (α4β2*-nAChR [3]; [9]): 0.49 µM

Compound: c1cncc(C2CC3CCN2CC3)c1 (racemic) [Compound 1, (±)-2-(-3-pyridinyl)-1-azabicyclo[2.2.2]octane]
- Physiological effect α6L9'Sβ2* (α6L9'S transgenic mice [4]): locomotor activation; also recorded: activation (0.01) ^2
- Temperature drop in α4L9'A mice (α4L9'A knock-in mice [2]; 0.03 mg/kg i.p.): ~8 °
- Physiological effect α4L9'Aβ2* (α4L9'A knock-in mice [2]; mouse, in vivo): hypothermia (0.03)
- Increase in activity over saline in α6L9'S mice (α6L9'S transgenic mice [5]; 0.01 mg/kg i.p.): ~290%

Compound: c1cncc(C2C3CCN2CC3)c1 (centres unmarked) [Compound 2, 7-(pyridin-3-yl)-1-azabicyclo[2.2.1]heptane]
- EC50 (α6β2*-nAChR [1]; [10]): 0.05 ± 0.023 µM
- Functional character at α6β2* (α6β2*-nAChR [1]; α-CtxMII-sensitive DA release): full agonist
- Physiological effect α4L9'Aβ2* (α4L9'A knock-in mice [2]; [11]): elicited responses; also recorded: hypothermia (0.03)
- EC50 (α3β4*-nAChR): 4.2 ± 0.5 µM
- Functional character at α3β4* (α3β4*-nAChR): full or nearly full agonists
- Ki (α7-nAChR): 0.0329 ± 0.0013 µM
- Functional character at α7 (hα7-nAChR): full agonist
- Emax (hα7-nAChR): 108%
- Physiological effect α6L9'Sβ2* (α6L9'S transgenic mice [5]): elicited responses; also recorded: locomotor activation; also recorded: activation (0.1)
- EC50 (α4β2*-nAChR [3]; [12]): 1.04 ± 0.28 µM

Compound: c1cncc(C2CCC3CCN2CC3)c1 (centres unmarked) [Compound 3, 2-(pyridine-3-yl)-1-azabicyclo[3.2.2]nonane]
- Ki (α6β2*-nAChR [1]): 0.052 ± 0.022 µM
- Physiological effect α4L9'Aβ2* (α4L9'A knock-in mice [2]; mouse, in vivo): blocked the effects of 0.1 mg/kg nicotine; also recorded: block (0.002)
- EC50 (α3β4*-nAChR; [13]): 2.2 ± 0.3 µM
- Functional character at α3β4* (α3β4*-nAChR): full or nearly full agonists
- Ki (α7-nAChR): 0.0022 ± 0.0005 µM
- Functional character at α7 (hα7-nAChR): full agonists
- Emax (hα7-nAChR): 106%
- Ki (α4β2*-nAChR [3]; [14]): 0.014 µM

Compound: c1cncc(C2C3CC4CC(C3)CN2C4)c1 (centres unmarked) [Compound 4, 1-aza-2-(3-pyridinyl)-tricyclo[3.3.1.13,7]decane]
- Ki (α6β2*-nAChR [1]): 0.57 ± 0.299 µM
- Physiological effect α4L9'Aβ2* (α4L9'A knock-in mice [2]; mouse, in vivo): blocked the effects of 0.1 mg/kg nicotine; also recorded: block (0.01)
- EC50 (α3β4*-nAChR; EC50 α3β4* [3H]-ACh release): 8.5 µM
- EC50 (α3β4*-nAChR; [13]): 34 ± 8 µM
- Functional character at α3β4* (α3β4*-nAChR): full or nearly full agonists
- Ki (α7-nAChR): 0.0645 ± 0.0055 µM
- Ki (α4β2*-nAChR [3]; [14]): 0.078 µM

Compound: c1cncc(CC2CC3CCN2CC3)c1 (centres unmarked) [Compound 5, 2-(pyridin-3-ylmethyl)quinuclidine]
- Physiological effect α4L9'Aβ2* (α4L9'A knock-in mice [2]; mouse, in vivo): did not have intrinsic activity, nor did they block the effect of nicotine; also recorded: no effect
- Functional character at α3β4* (α3β4*-nAChR): full or nearly full agonists

Compound: c1ccc(-c2cncc(C3CC4CCN3CC4)c2)cc1 [Compound 6, (4S)-2-(5-phenylpyridin-3-yl)quinuclidine]
- Efficacy α6β2* (α6β2*-nAChR [1]): -100 ± 19%
- Ki (α6β2*-nAChR [1]; read-out: Ki α6β2* (marked #)): 1.78 ± 1.74 µM
- Efficacy α3β4* (α3β4*-nAChR): -100 ± 7%
- Functional character at α3β4* (α3β4*-nAChR): full antagonists
- Ki (α3β4*-nAChR; read-out: Ki α3β4* (marked #)): 0.66 ± 0.17 µM
- Decrease in α7 binding affinity relative to Compound 1 (α7-nAChR): approximately 50 fold
- Efficacy α7 (hα7-nAChR): 18 ± 6%
- EC50 (hα7-nAChR; peak current, GH4C1 cells): 29 ± 5.4 µM
- Efficacy α4β2* (first number, [3H]DA release) (α4β2*-nAChR [3]): -94 ± 2%
- Ki (α4β2*-nAChR [3]; [9]): 0.23 µM

Compound: N#Cc1ccc(Oc2cncc(C3CC4CCN3CC4)c2)cc1 (centres unmarked) [Compound 7, 4-(5-(quinuclidin-2-yl)pyridin-3-yloxy)benzonitrile]
- Antagonist potency at α6β2* relative to Compound 6 (times more potent) (α6β2*-nAChR [1]): 40 times
- Ki (α6β2*-nAChR [1]): 0.048 ± 0.003 µM
- Physiological effect α4L9'Aβ2* (α4L9'A knock-in mice [2]; mouse, in vivo): blocked the effects of 0.1 mg/kg nicotine; also recorded: block (0.01)
- Ki (α3β4*-nAChR): 7 ± 2 µM
- Functional character at α3β4* (α3β4*-nAChR): full or nearly full agonists
- Ki (α7-nAChR): 0.0234 ± 0.0079 µM
- Physiological effect α6L9'Sβ2* (α6L9'S transgenic mice [5]): block (0.1)
- Ki (α4β2*-nAChR [3]; [14]): 0.066 µM

Compound: CNCC/C=C/c1cccnc1 [Compound 8, (E)-N-methyl-4-(3-pyridinyl)-3-butene-1-amine]
- Functional character at α6β2* (α6β2*-nAChR [1]; α-CtxMII-sensitive DA release): no measurable activity
- Physiological effect α6L9'Sβ2* (α6L9'S transgenic mice [4]): elicited responses; also recorded: elicit a response; also recorded: activation (1.0) ^2
- Physiological effect α4L9'Aβ2* (α4L9'A knock-in mice [2]; mouse, in vivo): elicited responses; also recorded: hypothermia (0.2)
- Functional character at α3β4* (α3β4*-nAChR): partial agonists
- Ki (α7-nAChR): 3.07 ± 0.8 µM
- Emax (hα7-nAChR): 17 ± 7%
- EC50 (α4β2*-nAChR [3]): 14.8 ± 10.1 µM

Compound: CNC(C)C/C=C/c1cncc(C#Cc2ccccc2)c1 (centres unmarked) [Compound 9, (E)-N-methyl-5-(5-(phenylethynyl)pyridin-3-yl)pent-4-en-2-amine]
- Inhibition at α6β2* (partial antagonism) (α6β2*-nAChR [1]): ~50%
- Ki (α6β2*-nAChR [1]): 4.1 ± 0.083 µM
- Physiological effect α4L9'Aβ2* (α4L9'A knock-in mice [2]; mouse, in vivo): did not have intrinsic activity, nor did they block the effect of nicotine; also recorded: no effect
- Ki (α3β4*-nAChR): 14 ± 0.3 µM
- Functional character at α3β4* (α3β4*-nAChR): full antagonists
- Ki (α7-nAChR): 30.7 ± 4.1 µM
- Efficacy α7 (hα7-nAChR): naa
- EC50 α7 (hα7-nAChR; peak current, GH4C1 cells): naa
- Ki (α4β2*-nAChR [3]; [14]): 3.9 µM

Compound: CN1[C@@H]2CC[C@H]1C=C(c1cncc(Br)c1)C2 [Compound 10, (1R,5S)-3-(5-bromopyridin-3-yl)-8-methyl-8-azabicyclo[3.2.1]oct-3-ene]
- EC50 (α6β2*-nAChR [1]; [10]): 0.117 ± 0.069 µM
- EC50 (α6β2*-nAChR [1]; EC50 α-CtxMII-sensitive (α6β2*) [3H]-DA release): 0.12 µM
- Functional character at α6β2* (α6β2*-nAChR [1]; α-CtxMII-sensitive DA release): partial agonist
- Physiological effect α4L9'Aβ2* (α4L9'A knock-in mice [2]; mouse, in vivo): elicited responses; also recorded: hypothermia (0.1)
- EC50 (α3β4*-nAChR; [13]): 7.2 ± 0.6 µM
- Functional character at α3β4* (α3β4*-nAChR): partial agonists
- Ki (α7-nAChR): 0.128 ± 0.036 µM
- Emax (hα7-nAChR): 55 ± 9%
- Physiological effect α6L9'Sβ2* (α6L9'S transgenic mice [5]): elicited responses; also recorded: locomotor activation; also recorded: activation (0.1)
- Efficacy as % of Compound 8, α-CtxMII-resistant DA release (α4β2*-nAChR [3]): 25%
- Increase in potency relative to Compound 8, α-CtxMII-resistant DA release (α4β2*-nAChR [3]): 83 fold
- EC50 (α4β2*-nAChR [3]; [12]): 0.178 ± 0.094 µM
- EC50 (α4β2*-nAChR [3]; EC50 α-CtxMII-resistant (α4β2*) [3H]-DA release): 0.18 µM

Compound: CN1CCC[C@H]1c1cccnc1 [Nicotine, (-)-nicotine tartrate]
- Temperature decrease in α4L9'A mice (α4L9'A knock-in mice [6]; 0.03 mg/kg): 3 °C
- Physiological effect α4L9'Aβ2* (α4L9'A knock-in mice [6]): hypothermia (0.01) ^1
- Physiological effect α4L9'Aβ2* (α4L9'A knock-in mice [6]; listed as nicotine): hypothermia
- Locomotor activation, % of saline activity in α6L9'S mice (α6L9'S transgenic mice [4]; 0.15 mg/kg ip): ~350%
- Physiological effect α6L9'Sβ2* (α6L9'S transgenic mice [4]): activation (0.1) ^2
- Physiological effect α6L9'Sβ2* (α6L9'S transgenic mice [4]; listed as nicotine): locomotor hyperactivity
- Temperature decrease in α6L9'S mice (α6L9'S mice): < 1 °C

Compound: c1cnc2cc3c(cc2n1)[C@@H]1CNC[C@H]3C1 [Varenicline, reference compound]
- EC50 (α6β2*-nAChR [1]): 0.077 ± 0.169 µM
- Physiological effect α4L9'Aβ2* (α4L9'A knock-in mice [2]; [11]): hypothermia (0.001)
- EC50 (α3β4*-nAChR): 12 ± 0.3 µM
- Ki (α7-nAChR): 0.042 ± 0.005 µM
- Emax (hα7-nAChR): 78 ± 24%
- Physiological effect α6L9'Sβ2* (α6L9'S transgenic mice [5]): activation (0.1)
- Physiological effect α6L9'Sβ2* (α6L9'S transgenic mice [5]; listed as varenicline): locomotor hyperactivity
- EC50 (α4β2*-nAChR [3]): 0.05 ± 0.012 µM

Compound: O=c1cccc2n1C[C@@H]1CNC[C@H]2C1 [cytisine]
- Efficacy at α4β2*-nAChRs (α4β2*-nAChR [7]): 37%
- Efficacy at α6β2* (α6β2*-nAChR [8]): 71%
